# Activity calls are given as the source filed them. Rule as the data show it, for most assays here: actives have a measured EC50 and inactives only a lower limit.
# Tests used:
# [1] = Luminescence Cell-Based Dose Response HTS to Identify Inhibitors of 5'UTR Stem-Loop Driven Prion Protein mRNA Translation in H4 Neuroglioblastoma Cells. [Related pubchem assays: 1827 (Project Summary), 1813 (Primary HTS)]; assay type: functional
# [2] = inhibitors of SNCA 5'UTR-driven reporter translation, confirmation, H4 neuroglioma cells, luminescence (AID 1988); assay type: functional, cell-based
# [3] = inhibitors of firefly luciferase expression or activity, dose response, H4 neuroglioma cells, luminescence (AID 1990); assay type: functional, cell-based
# [4] = molecular target: T1, Streptokinase A (Streptococcus pyogenes serotype M1, UniProt P10520); assay: S. pyogenes streptokinase expression inhibitors, potency, dose response, plasminogen activation absorbance, OD405 (AID 1914); assay type: functional, Streptococcus pyogenes M1 GAS;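 also: secreted streptokinase activity via plasminogen activation per viability signal from cell pellet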
# T1 sequence (P10520 whole entry): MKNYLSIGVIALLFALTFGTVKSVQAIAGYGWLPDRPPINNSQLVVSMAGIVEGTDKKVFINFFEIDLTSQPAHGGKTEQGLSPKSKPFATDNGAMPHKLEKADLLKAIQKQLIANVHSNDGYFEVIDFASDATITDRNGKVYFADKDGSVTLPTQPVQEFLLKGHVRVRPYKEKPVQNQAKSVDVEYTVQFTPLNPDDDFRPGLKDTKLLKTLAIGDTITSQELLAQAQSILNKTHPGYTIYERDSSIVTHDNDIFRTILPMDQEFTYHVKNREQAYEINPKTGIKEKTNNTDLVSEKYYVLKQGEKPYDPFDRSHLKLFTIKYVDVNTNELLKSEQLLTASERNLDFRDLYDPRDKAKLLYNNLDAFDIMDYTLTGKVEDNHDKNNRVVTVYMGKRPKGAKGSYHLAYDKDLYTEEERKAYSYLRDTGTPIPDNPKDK
# [5] = test system: Streptococcus; assay: Group A Streptococcus viability loss, dose response, counter-screen for streptokinase expression inhibitor project, luminescence, BacTiterGlo (AID 1915); assay type: functional, organism-based;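 also: potency for reduction of bacterial viability or growth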
# [6] = test system: Streptococcus sp. 'group A'; assay: growth inhibition of control SK(-) GAS strain, dose response, counter-screen for streptokinase expression inhibitor project, luminescence, kanamycin, BacTiterGlo, confirmation (AID 1900); assay type: functional, organism-based
# [7] = HEp-2 cell cytotoxicity, dose response, cytotoxicity control for RSV inhibitor project, HTS (AID 2410); assay type: functional; conditions: human respiratory syncytial virus
# [8] = molecular target: T2, Calpain-2 catalytic subunit (Sus scrofa, UniProt P43367); assay: pig calpain II inhibitor potency, dose response, biochemical, fluorogenic peptide substrate (AID 1420); assay type: functional
# T2 sequence (P43367 whole entry): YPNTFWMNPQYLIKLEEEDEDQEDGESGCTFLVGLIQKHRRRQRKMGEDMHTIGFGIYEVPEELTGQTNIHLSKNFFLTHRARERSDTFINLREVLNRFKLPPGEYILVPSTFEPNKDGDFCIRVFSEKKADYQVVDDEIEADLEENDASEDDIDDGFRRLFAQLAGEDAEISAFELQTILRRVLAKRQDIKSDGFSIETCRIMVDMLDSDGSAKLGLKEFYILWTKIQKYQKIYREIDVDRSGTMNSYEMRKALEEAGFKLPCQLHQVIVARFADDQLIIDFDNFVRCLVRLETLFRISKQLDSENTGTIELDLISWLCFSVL
# [9] = molecular target: T3, Corticotropin-releasing factor receptor 2/Corticotropin-releasing factor-binding protein (Homo sapiens, UniProt P24387+Q13324); assay: Dose Response confirmation of uHTS hits for small molecule antagonists of the CRF-binding protein and CRF-R2 receptor complex.; assay type: functional; conditions: read-out: IC50_Mean
# T3 sequence (Q13324 whole entry): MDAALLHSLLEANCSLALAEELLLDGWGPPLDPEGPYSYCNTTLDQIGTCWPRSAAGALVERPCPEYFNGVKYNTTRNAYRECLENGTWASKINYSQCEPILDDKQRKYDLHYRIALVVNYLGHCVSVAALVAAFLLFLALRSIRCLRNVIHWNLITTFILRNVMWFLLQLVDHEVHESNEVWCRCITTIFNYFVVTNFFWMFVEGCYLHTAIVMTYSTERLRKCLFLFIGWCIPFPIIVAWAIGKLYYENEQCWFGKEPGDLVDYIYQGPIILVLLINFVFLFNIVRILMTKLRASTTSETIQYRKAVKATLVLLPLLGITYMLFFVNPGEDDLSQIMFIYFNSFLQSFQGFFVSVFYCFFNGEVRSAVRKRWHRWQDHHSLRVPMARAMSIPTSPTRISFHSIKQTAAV
# T3 sequence (P24387 whole entry): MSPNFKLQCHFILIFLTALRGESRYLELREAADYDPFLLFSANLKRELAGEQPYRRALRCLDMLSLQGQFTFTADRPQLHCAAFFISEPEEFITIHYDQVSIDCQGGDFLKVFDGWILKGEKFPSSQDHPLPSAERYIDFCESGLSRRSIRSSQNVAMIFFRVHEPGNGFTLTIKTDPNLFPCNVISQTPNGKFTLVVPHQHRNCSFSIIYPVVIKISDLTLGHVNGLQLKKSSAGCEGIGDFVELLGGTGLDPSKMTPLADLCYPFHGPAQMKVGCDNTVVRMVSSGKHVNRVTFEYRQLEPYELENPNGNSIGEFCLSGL
# [10] = molecular target: T3, Corticotropin-releasing factor receptor 2/Corticotropin-releasing factor-binding protein; assay: activators of CRF receptor 2 with binding protein – uHTS hits, confirmation (AID 602473); assay type: functional; conditions: read-out: EC50_Mean
# [11] = cells; assay type: functional, cell-based
# [12] = cells; assay type: functional, cell-based; remark: listed apart in the source
# [13] = test system: INS1; assay: beta cell apoptosis inhibitors, cytokine rescue, dose response, luminescence, retest (AID 449756); assay type: functional, cell-based; conditions: Rattus norvegicus;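 also: cell death triggered by IL-1 beta plus TNF-alpha plus IFN-gamma mixture; protective hits raise ATP signal compared with cytokine alone wells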
# [14] = inhibitors of intracellular T. cruzi replication, confirmation, NIH3T3 host cells, beta-gal luminescence (AID 2044); assay type: functional, cell-based;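 also: intracellular parasites grown in NIH/3T3 mouse fibroblasts as host cells; luminescent beta-galactosidase reporter signal from transgenic T. cruzi replicating inside host cells; inhibitors lower the luminescence signal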
# [15] = cytotoxicity toward NIH3T3 fibroblasts, dose response, counter-screen, cell-based, ATP luminescence, mouse fibroblasts (AID 2010); assay type: functional;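 also: cells exposed to compound for about 90 hours before reading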
# [16] = molecular target: T4, Heat shock factor protein 1 (Mus musculus, UniProt P38532); assay: inhibition of MG132-induced HSE-luciferase signal, confirmation, cell-based, NIH3T3, luminescence, dose retest (AID 2382); assay type: functional;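 also: NIH3T3 fibroblasts with HSF1-driven luciferase reporter stressed by proteasome inhibitor MG132; luminescence from HSF1-driven luciferase expression after 8 hours of MG132 stress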
# T4 sequence (P38532 whole entry): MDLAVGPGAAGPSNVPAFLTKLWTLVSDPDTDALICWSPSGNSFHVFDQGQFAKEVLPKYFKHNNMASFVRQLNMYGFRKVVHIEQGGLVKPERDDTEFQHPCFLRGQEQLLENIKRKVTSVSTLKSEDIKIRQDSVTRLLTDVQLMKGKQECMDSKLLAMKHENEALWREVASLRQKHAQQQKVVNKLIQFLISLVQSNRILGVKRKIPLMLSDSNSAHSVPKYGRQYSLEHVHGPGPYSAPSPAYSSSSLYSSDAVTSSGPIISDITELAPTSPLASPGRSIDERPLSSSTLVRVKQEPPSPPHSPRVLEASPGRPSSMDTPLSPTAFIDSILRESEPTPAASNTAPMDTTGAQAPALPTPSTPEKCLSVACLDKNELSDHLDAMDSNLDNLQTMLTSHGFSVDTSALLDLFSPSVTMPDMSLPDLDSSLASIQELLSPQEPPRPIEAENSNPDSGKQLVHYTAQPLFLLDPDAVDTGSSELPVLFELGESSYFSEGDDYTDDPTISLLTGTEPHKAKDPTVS
# [17] = P. falciparum Dd2 growth inhibitors, dose response, SYBR Green, cherry-picked samples (AID 1159567); assay type: functional, cell-based
smiles,measurement,setting,value
CCCNC(=O)c1ccc(N2CCC3(CC2)CC(c2ccccc2)=NO3)c(NC(=O)c2ccccc2)c1,EC50,[1],> 120 µM (not active)
same,EC50,[2],12.7 µM (active)
same,EC50,[3],18.7 µM (active)
Cc1nn(Cc2ccc(Cl)cc2Cl)c(C)c1NC(=O)NC12CC3CC(CC(C3)C1)C2,EC50,[4],32.7 µM (active)
same,EC50,[5],33.4 µM (active)
same,EC50,[6],7.54 µM (active)
Nc1c(S(=O)(=O)c2cccs2)c2nc3ccccc3nc2n1Cc1ccccc1,EC50,[1],> 120 µM (not active)
same,EC50,[2],> 120 µM (not active)
same,EC50,[3],20.7 µM (active)
NC(=O)c1ccc(NC(=O)COC(=O)C2(c3ccccc3F)CCCC2)cc1,EC50,[1],> 120 µM (not active)
same,EC50,[2],17.5 µM (active)
same,EC50,[3],> 120 µM (not active)
CCCn1c(C2CCCN2c2nc(-c3cccc(Br)c3)cs2)nc2cc(Cl)c(Cl)cc21 (stereo not given),EC50,[4],> 150 µM (not active)
same,EC50,[5],56.5 µM (active)
same,EC50,[6],2.99 µM (active)
Fc1cccc(Cl)c1CSc1ccc(-c2cccnc2)nn1,CC50,[7],> 50 µM (active)
same,IC50,[8],29.7 µM (not active)
Cc1ccc(S(=O)(=O)N2c3ccccc3OCC2C(C)(C)C)cc1 (stereo not given),IC50,[9],> 47.1 µM (inactive)
same,EC50,[4],16.9 µM (active)
same,EC50,[10],> 53 µM (inactive)
same,EC50,[5],> 150 µM (not active)
same,EC50,[6],16.4 µM (active)
CC(C)N(Cc1nc(-c2ccccc2)no1)C(=O)CCCN1C(=O)c2ccccc2C1=O,IC50,[8],> 50 µM (not active)
Cc1nc2c(C(=O)Nc3ccc(N4CCCC(O)C4)cc3)snc2c(=O)[nH]1 (stereo not given),EC50,[4],> 150 µM (not active)
Cc1ccc(-n2c(SCC(=O)NCCC3=CCCCC3)nc3nnc(C)c-3c2N)cc1Cl,EC50,[1],75.9 µM (active)
same,EC50,[2],> 120 µM (not active)
same,EC50,[3],23 µM (active)
Clc1c(CSc2nc3ccccc3o2)nc2sccn12,EC50,[11],> 350 µM (not active)
same,EC50,[12],21 µM (active)
CCC(CC)C1=NN2C(=N)/C(=C\c3c(C)[nH]c4ccccc34)C(=O)N=C2S1,EC50,[4],18.9 µM (inconclusive)
same,EC50,[5],53 µM (active)
same,CC50,[7],16.1 µM (active)
same,EC50,[6],5.71 µM (active)
OCc1cccc[n+]1CCc1ccccc1,EC50,[1],48.4 µM (active)
same,EC50,[2],> 120 µM (not active)
same,EC50,[3],> 120 µM (not active)
CCC1CCCCN1CCCNC(=O)C1CCN(c2nnc(-n3cccc3)s2)CC1 (stereo not given),EC50,[11],> 350 µM (not active)
same,EC50,[12],> 350 µM (not active)
O=C(C1CC12CCCC2)N1CCC(CO)(Cc2ccccc2Cl)CC1 (stereo not given),EC50,[1],120 µM (active)
same,EC50,[2],> 120 µM (not active)
same,EC50,[3],19 µM (active)
CCC(CO)Nc1ncnc2c1cnn2-c1ccc(OC)cc1 (stereo not given),EC50,[4],> 150 µM (not active)
same,EC50,[5],> 150 µM (not active)
same,EC50,[6],> 150 µM (not active)
O=C(NNC(=O)c1cccnc1SCc1cccc([N+](=O)[O-])c1)c1ccc(F)cc1,AC50,[13],7.02 µM (active)
COc1ccc(F)cc1CSc1nnnn1-c1ccc(O)cc1,EC50,[11],> 350 µM (not active)
same,EC50,[12],> 350 µM (not active)
COCCn1c(=O)c2c(nc3n2CC(C)CN3CCc2ccccc2)n(C)c1=O (stereo not given),EC50,[1],> 120 µM (not active)
same,EC50,[2],> 120 µM (not active)
same,EC50,[3],> 120 µM (not active)
Cc1ccc(C[n+]2cccc(-c3ccccc3)c2)c(C)c1,EC50,[14],0.552 µM (active)
same,EC50,[15],11.9 µM (active)
same,AC50,[13],4.24 µM (active)
COc1ccccc1N1CCN(Cc2c[nH]c3ccccc23)CC1,EC50,[1],25.3 µM (active)
same,EC50,[14],2.1 µM (active)
same,EC50,[2],> 120 µM (not active)
same,EC50,[15],> 60 µM (not active)
same,EC50,[3],> 120 µM (not active)
Cc1cccc(/C=C2\Sc3ccc(C(=O)N4CCC(C)CC4)cc3N(C)C2=O)c1,EC50,[4],20.3 µM (active)
same,EC50,[5],7.54 µM (active)
same,EC50,[6],3.11 µM (active)
CC(N=C(S)NC1CCCCC1)c1ccc(C(C)(C)C)cc1 (stereo not given),AC50,[13],6.14 µM (active)
O=C1CCCc2c1[nH]c1ccc(Br)cc21,EC50,[1],86.4 µM (active)
same,EC50,[2],9.02 µM (active)
same,EC50,[3],< 0.1 µM (active)
CN(C)C(=O)c1ccc(NC(=O)c2cccc(S(=O)(=O)N3CCCCCC3)c2)cc1,AC50,[13],> 260 µM (inactive)
COC(=O)[C@H](CC(C)C)N(Cc1ccccc1)S(=O)(=O)N(Cc1ccccc1)[C@@H](CC(C)C)C(=O)OC,AC50,[13],13.7 µM (active)
CC/N=C1\S/C(=C\c2ccc(-c3cccc(C(=O)O)c3)o2)C(=O)N1CC,EC50,[4],> 150 µM (not active)
same,EC50,[5],10.7 µM (active)
same,EC50,[16],> 195 µM (not active)
same,EC50,[6],3.4 µM (active)
N#Cc1ccc(-c2ccc([C@H]3[C@@H](CO)N4C(=O)CN(C(=O)Cc5ccccc5)C[C@@H]34)cc2)cc1,AC50,[17],18.1 µM (active)
CCC(=O)N1CC2(C1)CN(S(=O)(=O)c1ccccc1)[C@@H](CO)c1[nH]c3cc(OC)ccc3c12,AC50,[17],5.43 µM (active)
CO[C@@H]1CN(C)C(=O)c2ccc(NC(=O)c3cc(C)on3)cc2OC[C@@H](C)N(S(=O)(=O)c2cccc(C)c2)C[C@H]1C,AC50,[17],4.07 µM (active)
C[C@@H]1CN([C@@H](C)CO)C(=O)c2cccc(NC(=O)c3cnccn3)c2O[C@@H]1CN(C)Cc1ccc(C(F)(F)F)cc1,AC50,[17],9.12 µM (active)
C[C@@H]1CN([C@@H](C)CO)C(=O)c2c(c3ccccc3n2C)-c2ccccc2CO[C@H]1CN(C)C(=O)Nc1ccccc1C(F)(F)F,AC50,[17],4.33 µM (active)
CO[C@H]1CN(C)C(=O)c2cc(NC(=O)c3nc4ccccc4s3)ccc2OC[C@H](C)NC[C@@H]1C,AC50,[17],13.5 µM (active)
CC(C)(C)NC(=O)N1c2ccccc2Sc2ccccc21,EC50,[1],> 120 µM (not active)
same,EC50,[2],112 µM (active)
same,EC50,[3],15.3 µM (active)
